Assay results published in patent publication US5834454A, “Substituted guanidine derivatives, process for production thereof, and pharmaceutical uses thereof” (Sumitomo Pharmaceuticals Company, Limited, priority 1996, dated 1998).
pIC50: −log10 of the molar value.

Target: T1, Na^+ /H^+ exchange transport system (Rattus norvegicus, UniProt P26431)
T1 construct: isolated ventricular myocytes (rat); endogenous in cells; host or cells: isolated rat ventricular myocytes (primary cells)
Assay: Inhibitory effect on the Na^+ /H^+ exchange transport system (in vitro), pH change in isolated ventricular myocytes under an acid load
Assay type: cell-based
Description: Inhibitry effect on the Na^+ /H^+ exchange transport system (in vitro)
A test was carried out according to the method of Iemori et al. (J. Hypertension, 8, 153 (1990)). In detail, inhibitory effect on the Na^+ /H^+ exchange transport system was evaluated by using as an indication a pH change in isolated ventricular myocytes (rat) under an acid load.

T1 sequence (P26431 whole entry): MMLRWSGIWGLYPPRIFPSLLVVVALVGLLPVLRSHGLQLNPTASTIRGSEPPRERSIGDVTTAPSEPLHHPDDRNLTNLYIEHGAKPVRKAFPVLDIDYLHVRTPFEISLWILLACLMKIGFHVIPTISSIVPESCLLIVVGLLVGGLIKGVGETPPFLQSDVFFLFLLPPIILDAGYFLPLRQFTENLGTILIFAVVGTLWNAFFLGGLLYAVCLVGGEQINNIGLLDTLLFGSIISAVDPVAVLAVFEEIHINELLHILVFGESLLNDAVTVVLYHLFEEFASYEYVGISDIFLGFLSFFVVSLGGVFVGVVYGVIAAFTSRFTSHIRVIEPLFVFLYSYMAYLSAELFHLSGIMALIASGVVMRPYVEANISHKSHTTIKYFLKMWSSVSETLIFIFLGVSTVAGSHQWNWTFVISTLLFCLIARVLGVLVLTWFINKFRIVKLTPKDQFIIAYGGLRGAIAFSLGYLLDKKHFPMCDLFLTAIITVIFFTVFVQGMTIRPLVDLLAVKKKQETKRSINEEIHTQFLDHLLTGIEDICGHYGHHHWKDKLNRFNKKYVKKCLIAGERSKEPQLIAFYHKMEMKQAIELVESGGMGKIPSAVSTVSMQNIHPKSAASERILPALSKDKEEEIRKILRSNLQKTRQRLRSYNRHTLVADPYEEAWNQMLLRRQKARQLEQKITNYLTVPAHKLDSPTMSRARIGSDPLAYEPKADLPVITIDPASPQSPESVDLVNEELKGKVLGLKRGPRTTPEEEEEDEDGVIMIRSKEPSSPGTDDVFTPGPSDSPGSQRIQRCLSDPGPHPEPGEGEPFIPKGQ

Cc1ccc2c3c1cc(C(=O)N=C(N)N)n3CCO2 [Example 2, N-(aminoiminomethyl)-2,3-dihydro-7-methyl-pyrrolo [1,2,3-de]-1,4-benzoxazine-5-carboxamide methanesulfonate] was tested, and the pIC50 was 6.70.

Work on Cc1ccc2c3c1cc(C(=O)N=C(N)N)n3CCC2=O [Example 1, N-(aminoiminomethyl)-5,6-dihydro-9-methyl-6-oxo-4H-pyrrolo [3,2,1-ij]quinoline-2-carboxamide methanesulfonate] yielded a pIC50 of 6.52.

Compound NC(N)=NC(=O)c1cc2cccc3c2n1CCC3 [Example 3, N-(aminoiminomethyl)-5,6-dihydro-4H-pyrrolo [3,2,1-ij]quinoline-2-carboxamide methanesulfonate] has a pIC50 of 6.52.
